# Experimental data: article PMC8954350, “Non-Canonical Cannabinoid Receptors with Distinct Binding and Signaling Properties in Prostate and Other Cancer Cell Types Mediate Cell Death” (International Journal of Molecular Sciences, 2022)
# What was measured:
# [1] = tested on: canonical human CB1Rs (CHO-hCB1); parameters: method as in PMID 34592231; conditions: 1 μM ligand, 1 nM radioligand, CHO-hCB1 membranes; cited from earlier work
# [2] = tested on: CBRs expressed in PC-12 cells; assay: [^3H]WIN-55,212-2 competitive binding screen, PC-12 membranes; parameters: species or system rat; conditions: 1 μM ligand, 1 nM radioligand
# Protocol: (§1) The assay was conducted as previously detailed. […] All binding reactions were conducted in triplicate, in a final volume of 1 mL, and, following mixing, were incubated for 20 min in a 37 °C water bath to achieve equilibrium. After incubation, reactions were terminated by rapid vacuum filtration through Whatman GF/B glass fiber filters (Brandel; Gaithersburg, MD, USA), followed by three washes of 4 mls of ice-cold filtration buffer (50 mM Tris, pH 7.4, and 0.05% bovine serum albumin). Samples were punched out from filter papers into scintillation vials, to which 4 mls of ScintiverseTM-BDR cocktail scintillation fluid (Fisher Scientific; Hampton, NH, USA) was added. Filters were incubated at room temperature for 24 h in scintillation fluid, vortexed, and radioactivity (measured as DPMs) was quantified via a liquid scintillation spectrophotometer (Tri Carb 2100 TR Liquid Scintillation Analyzer, Packard Instruments, Meriden, CT, USA).
# [3] = target: non-canonical CBRs expressed in C6-glioma; assay: Homologous receptor binding, C6-glioma; parameters: species or system mouse; conditions: homologous competition with [^3H]WIN-55,212-2 (1 nM), read-out: affinity (KD)
# Protocol: (§2) All binding reactions were conducted in triplicate, in a final volume of 1 mL, and, following mixing, were incubated for 20 min in a 37 °C water bath to achieve equilibrium. After incubation, reactions were terminated by rapid vacuum filtration and processed for radioactivity, as detailed in Section 4.5.1.
# (§3) Curve-fitting and all statistical analyses were performed using GraphPad Prism® v8.0g (GraphPad Software, Inc.; San Diego, CA, USA). For qRT-PCR experiments, a one-way ANOVA, followed by Dunnett’s test as a post hoc test was utilized to compare fold change of PC-3 and DU-145 cancer cells to an arbitrary value of 1, set to the amount of mRNA transcribed from a human normal prostate control. For CBR screening studies, a one-sample t-test was performed to determine differences from 100% (e.g., to quantify compounds producing displacement), followed by a one-way ANOVA and Tukey’s post hoc tests to compare displacement produced by all drugs. […] For LDH release, ATP-dependent cell viability and JC-1 staining assays, drug effects were first analyzed by a one-sample t-test to determine differences from 0 or 100% (vehicle), followed by a one-way ANOVA and Dunnett’s post hoc test to compare all means. […]
# [4] = tested on: CBRs expressed in HeLa cells; assay: [^3H]WIN-55,212-2 competitive binding screen, HeLa membranes; parameters: species or system human; conditions: 1 μM ligand, 1 nM radioligand
# Protocol: as §1
# [5] = tested on: CBRs expressed in DU-145 cells; assay: [^3H]CP-55,940 competitive binding screen, DU-145 membranes; parameters: species or system human; conditions: 1 μM ligand, 0.2 nM radioligand
# Protocol: as §1
# [6] = target: non-canonical CBRs expressed in PC-3; assay: Homologous receptor binding, PC-3; parameters: species or system human; conditions: homologous competition with [^3H]WIN-55,212-2 (1 nM), read-out: affinity (KD)
# Protocol: as §2, §3
# [7] = target: non-canonical CBRs expressed in DU-145; assay: Homologous receptor binding, DU-145; parameters: species or system human; conditions: homologous competition with [^3H]WIN-55,212-2 (1 nM), read-out: affinity (KD)
# Protocol: as §2, §3
# human CB1 receptors = target: T1, human CB1 receptors (Homo sapiens, UniProt P21554); assay: Competition binding, CHO-hCB1 membranes; conditions: membranes from CHO cells stably expressing human CB1
# T1 construct: host or cells: CHO
# T1 sequence (P21554 whole entry): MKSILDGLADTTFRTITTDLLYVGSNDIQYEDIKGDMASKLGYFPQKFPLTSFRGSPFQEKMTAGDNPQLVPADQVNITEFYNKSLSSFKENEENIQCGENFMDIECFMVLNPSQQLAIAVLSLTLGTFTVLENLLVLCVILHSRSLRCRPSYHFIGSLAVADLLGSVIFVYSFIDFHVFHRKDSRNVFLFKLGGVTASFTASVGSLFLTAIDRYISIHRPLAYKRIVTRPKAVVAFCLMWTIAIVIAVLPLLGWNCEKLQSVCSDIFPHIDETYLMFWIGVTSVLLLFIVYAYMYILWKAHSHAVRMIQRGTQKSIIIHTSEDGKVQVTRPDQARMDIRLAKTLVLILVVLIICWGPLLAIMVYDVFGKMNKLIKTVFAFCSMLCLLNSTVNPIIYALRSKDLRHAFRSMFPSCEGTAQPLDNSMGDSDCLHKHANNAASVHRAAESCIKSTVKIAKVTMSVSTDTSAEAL
# Protocol: as §2, with “The assay was performed as previously detailed. […] All” for “All”
# Curve-fitting and all statistical analyses were performed using GraphPad Prism® v8.0g (GraphPad Software, Inc.; San Diego, CA, USA). […] For CBR screening studies, a one-sample t-test was performed to determine differences from 100% (e.g., to quantify compounds producing displacement), followed by a one-way ANOVA and Tukey’s post hoc tests to compare displacement produced by all drugs. […] To compare specific CBR affinity (Ki) between ligands, non-linear regression analysis was employed to determine experimental IC50 values from competition receptor binding assays, which were then converted to Ki values using the Cheng–Prusoff equation [35]. […] For LDH release, ATP-dependent cell viability and JC-1 staining assays, drug effects were first analyzed by a one-sample t-test to determine differences from 0 or 100% (vehicle), followed by a one-way ANOVA and Dunnett’s post hoc test to compare all means. […]
Structure (SMILES),"displacement of [^3H]WIN-55,212-2 (Figure 1B) [1]","displacement of [^3H]WIN-55,212-2 (Figure 1B) [2]",Kd [3] [nM],"displacement of [^3H]WIN-55,212-2 (Figure 1B) [4]","displacement of [^3H]CP-55,940 [5]",Kd [6] [nM],Kd [7] [nM],Ki (human CB1 receptors) [nM]
"Cc1c(C(=O)c2cccc3ccccc23)c2cccc3c2n1[C@H](CN1CCOCC1)CO3 [WIN-55,212-2]",produced near or complete displacement,significantly displaced,16.1 ± 2.5,significantly displaced,"neither the non-selective CBR ligand CP-55,940 nor WIN-55,212-2 produced significant displacement",8.4 ± 2.1,4.3 ± 0.89,
COc1ccc2c(c1)c(CCN1CCOCC1)c(C)n2C(=O)c1cccc(Cl)c1Cl [GW-405833],,,,,,,,747
